Experimental data taken from PMC12117711, “The contribution of cyclic imide stereoisomers on cereblon-dependent activity†” (Chemical Science, 2025).
Non-standard residues stand in square brackets, D forms with d. No end group written: not given here. *: point of attachment. epicN = C-terminal cyclic asparagine (aspartimide), (R)-epimer, epimer of cN, O=C1C[C@@H](N*)C(=O)N1; cQ = C-terminal cyclic glutamine (glutarimide), (S)-epimer, O=C1CC[C@H](N*)C(=O)N1; Fmoc = O=C(OCC1c2ccccc2-c2ccccc21)*

Key:
[1] = in vitro, 0.1 M phosphate buffer (pH 7.4), 37 °C; cited from earlier work
[2] = molecular target: T1, His6-CRBN/DDB1 and GST-BRD4(BD2) (Homo sapiens, UniProt O60885+Q96SW2); assay: AlphaScreen ternary complex formation, His6-CRBN/DDB1 and GST-BRD4(BD2); type: binding
T1 construct: His6-CRBN/DDB1 complex and GST-BRD4 BD2 domain; purchased Epicypher (GST-BRD4(BD2)); Bristol Myers Squibb gift (His6-CRBN/DDB1) 15-0013
Protocol: AlphaScreen was performed according to the previously reported method.7 Briefly, for AlphaScreen of His6-CRBN/DDB1, GST-IKZF1 and (S)-, (R)- or rac-lenalidomide-d3, a solution of 100 nM His6-CRBN/DDB1 and 200 nM GST-IKZF1 in 1x AlphaScreen buffer (5 µL) and a solution of the indicated compound in 1x AlphaScreen buffer (5 µL) were added to a each well of a 384-well Optiplate and incubated at 24 °C for 1 h. To each well, a solution of 5 µL of 60 µg/mL AlphaScreen Glutathione Donor beads, 60 µg/mL AlphaLISA Nickel Chelate Donor beads in 1× AlphaScreen buffer was added to each well and incubated at 24 °C for 1 h in the dark and the plate was analyzed. For AlphaScreen of His6-CRBN/DDB1, GST-BRD4(BD2) and bivalent degraders, a solution of 750 nM His-CRBN/DDB1 and 375 nM GST-BRD4(BD2) in 1x AlphaScreen buffer (5 µL) and a solution of the indicated compound in 1x AlphaScreen buffer (5 µL) were added to a each well of a 384-well Optiplate and incubated at 24 °C for 1 h. To each well, a solution of 5 µL of 60 µg/mL AlphaScreen Glutathione Donor beads, 60 µg/mL AlphaLISA Nickel Chelate Donor beads in 1× AlphaScreen buffer was added to each well and incubated at 24 °C for 1 h in the dark and the plate was analyzed. […]
heated at 95 °C for 5 min. 10 µL of the immunoprecipitated sample was load on a 12% Tris-glycine gel and probe-labeling was visualized by fluorescence signal. Separately, 10 µL of the immunoprecipitated sample and the “input” sample were load on a 12% Tris-glycine gel and analyzed by Western blotting. […]
Parental cell lines were stably infected with a unique 24-nucleotide DNA barcode via lentiviral transduction and blasticidin selection. […] Passing barcoded lines were then pooled (20-25 cell lines per pool) based on doubling time and frozen in assay-ready vials.
Test compounds were added to 384-well plates and run at 8 pt. dose with 3-fold dilutions, the highest concentration of 25 µM in triplicate. These assay ready plates were then seeded with […]

His6-CRBN/DDB1 = His6-CRBN/DDB1 (Homo sapiens, UniProt Q96SW2); assay: TR-FRET ligand displacement assay (Thal-FITC tracer) with His6-CRBN/DDB1
[3] = molecular target: T2, BRD4(BD1)-GFP in HEK293T cells (Homo sapiens, UniProt O60885+Q96SW2); assay: Degradation assay by flow cytometry, BRD4(BD1)-GFP; type: cell-based; conditions: 76 pM–20 μM, 4 h
T2 construct: HEK293T cells stably expressing BRD4(BD1) fused to GFP
Protocol: (v21.1.1) and Adobe Illustrator (v24.1).
MM.1S, MOLM13, Jurkat, and BxPC3 […]
μg/mL), and 10% (v/v) FBS.
Western Blotting Procedures […]
lysates and the concentration was adjusted using lysis buffer. 5× SDS-PAGE loading buffer […]
Protein samples (8–15 μL per lane) were […]
precast gels for medium molecular weight proteins. Gels were transferred to membranes using […]
for high molecular weight proteins. Membranes were stained with Ponceau S solution to visualize transfer and protein loading.
Degradation assay by flow cytometry […]
resuspension in DMEM +/– without phenol red. For IKZF1 degradation assay, propidium […]
equipped with a high throughput sampler. […]
using the BD FACSDiva software v9.1. For each experimental condition, the arithmetic mean […]
comparing compound treatment to DMSO control.
Structural proteomics mass spectrometry sample preparation […]
sample throughout the assay duration. The same analysis was also applied to the (S)- […]
dependent activity, we adjusted the dose-response curves accordingly. Because dose- […]
within the error margins of the original curve. […]
squares F-test. This analysis determined whether there was a statistically significant […]
derived (S)-enantiomer. If there is a statistically significant difference, the null […]
Cells were treated with 1 μM MLN4924
The cells were collected and lysed in […]
centrifugation (21,000 × g, 4 °C, 10 min). […]

MOLM13 cells = assay: Global quantitative proteomics of protein levels; type: cell-based; conditions: 4 h; for FC [fold change abundances (S/DMSO)] / logFC (S vs DMSO): MOLM13, 100 nM
Protocol: Global Quantitative Proteomics Sample Preparation and Mass Spectrometry Acquisition Global Quantitative Proteomics was performed according to the previously reported method.7 Briefly, 1.0×10^6 MOLM13 cells were seeded in 12-well plates and small molecules of interest were added, and cells were incubated at 37 °C, 5% CO2 for 4 hours. Cells were collected […]
15 sec in total, 11% amplitude) in lysis buffer (5% SDS in 50 mM triethylammonium bicarbonate (TEAB), pH 7.55), and cleared by centrifugation (21,000 × g, 4 °C, 10 min). After protein quantification by BCA protein assay, the lysates were diluted to 1.5 mg/mL with the lysis buffer. The diluted lysates (60 μL) were reduced by addition of dithiothreitol (20 mM) at 24 °C for 30 min then alkylated by addition of iodoacetamide (40 mM) and incubation in the dark at 24 °C for 30 min.

CRBN = test system: CRBN; set-up: method as in PMID 29358579, PMID 32929090, PMID 25043012, PMID 25108355; conditions: cited from earlier work
His6-CRBN/DDB1 complex [4] = molecular target: T3, His6-CRBN/DDB1 complex (UniProt Q96SW2 1-442; Q16531 1-1140); assay: AlphaScreen or HTRF; competitive TR-FRET ligand displacement assay against recombinant His6-CRBN/DDB1; KD from dose-titration of the ligand; conditions: both partners purified
T3 construct: cereblon (CRBN), E3 ligase substrate adapter; DDB1, in complex with CRBN; Used as a preformed complex in TR-FRET and AlphaScreen; also called cereblon; source: recombinant

His6-CRBN/DDB1 complex [5] = molecular target: His6-CRBN/DDB1 complex (UniProt Q96SW2); assay: as above
His6-CRBN/DDB1 complex [6] = molecular target: T4, His6-CRBN/DDB1 complex (UniProt Q96SW2 1-442; Q16531 1-1140); assay: AlphaScreen or HTRF; competitive TR-FRET ligand displacement; peptide titrated against recombinant His6-CRBN/DDB1 (2.5 nM) with the tracer Thalidomide-FITC (50 nM); KD from IC50 by the correction factor 1.426 (tracer KD 2-site 117.3 nM); conditions: both partners purified
T4 construct: cereblon (CRBN), E3 ligase substrate adapter; DDB1, in complex with His6-CRBN; Column 'Protein' of S0003 says only 'CRBN'; the text and legends name His6-CRBN/DDB1 for this TR-FRET assay; also called cereblon; source: recombinant

For `O=C1CC[C@@H](N2C(=O)c3ccccc3C2=O)C(=O)N1` [(R)-thalidomide], the “t50%ee (racemization half-life)” value [1] is given as 2.9 h.

With `[2H]C1([2H])C[C@]([2H])(N2Cc3cc(NC(=O)CCCCCCCCNC(=O)C[C@@H]4N=C(c5ccc(Cl)cc5)c5c(sc(C)c5C)-n5c(C)nnc54)ccc3C2=O)C(=O)NC1=O` [JQ1-(S)-Len-d3] the “ternary complex formation between His6-CRBN/DDB1 and GST-BRD4(BD2)” value [2] was “promoted a significant ternary complex formation”, the Kd (His6-CRBN/DDB1; KD, competitive TR-FRET, His6-CRBN/DDB1) was < 1 nM and the Kd (His6-CRBN/DDB1; predicted KD of the (S)-stereoisomer, ligand displacement assay adjusted for (S)-stereoisomer, (S)-stereoisomer in the (S)-sample, corrected for racemization) was 2.9 ± 0.2 nM. The “degradation of BRD4(BD1)-GFP” value [3] was “depleted BRD4 in a dose-dependent manner”, the “BRD4 protein levels by global quantitative proteomics” value (MOLM13 cells; MOLM13 cells, 100 nM) was “most significantly downregulated protein” and the “FC [fold change abundances (S/DMSO)]” value (MOLM13 cells; protein BRD4) was -1.354. For the same molecule, the “logFC (S vs DMSO)” value (MOLM13 cells; protein BRD4) was -0.6026, the “FC [fold change abundances (S/DMSO)]” value (MOLM13 cells; protein BRI3BP) was 2.54 and the “logFC (S vs DMSO)” value (MOLM13 cells; protein BRI3BP) was 1.398. The “FC [fold change abundances (S/DMSO)]” value (MOLM13 cells; protein C8orf33) was 1.053, the “logFC (S vs DMSO)” value (MOLM13 cells; protein C8orf33) was 0.3248 and the “FC [fold change abundances (S/DMSO)]” value (MOLM13 cells; protein KPNA3) was 1.127. For the same molecule, the “logFC (S vs DMSO)” value (MOLM13 cells; protein KPNA3) was 0.397, the “FC [fold change abundances (S/DMSO)]” value (MOLM13 cells; protein PSME2) was 1.009 and the “logFC (S vs DMSO)” value (MOLM13 cells; protein PSME2) was 0.2805.

For `O=C1CC[C@H](N2C(=O)c3ccccc3C2=O)C(=O)N1` [(S)-thalidomide], the “fold greater binding affinity to CRBN than (R)-thalidomide” value (CRBN) is given as “approximately 10 fold”.

B1: Fmoc-GGGFcQ (peptide)
peptide: Fmoc-GGGF[cQ]
notes: pentapeptide bearing the (S)-epimer of cyclic glutamine at the C-terminus; also called FcQ pentapeptide; source: synthetic peptide
B1 gave a Kd (His6-CRBN/DDB1 complex [4]) of 89 nM.

In the case of Fmoc-GGGF[epicN] (pentapeptide; source: synthetic peptide) [Fmoc-GGGFepicN], the Kd (His6-CRBN/DDB1 complex [5]) is reported as 2870 nM and the IC50 (His6-CRBN/DDB1 complex [6]) is reported as 4090 nM.
